Test results reported in patent publication US11542524B2, “Elimination of proliferating cells from stem cell-derived grafts” (priority 2017, dated 2023).
Entries after “also recorded” stand apart in the source; their conditions may differ.

How the values were obtained:
HSV-TK-transduced cells = experiment: Cell proliferation assay, low copy number, HSV-TK; assay type: cell-based
Procedure: (§1) In another experiment, the cells were transduced with a low copy number of the plasmids and, thus, differences between the different nucleoside analogs could be observed. […] Ganciclovir at high concentrations is also toxic to non-transduced cells.
(§2) Finally, the cell proliferation assay was also performed with the SR39 or HSV-TK-transduced cells treated with penciclovir. […] Thus, penciclovir may be used as the prodrug with the suicide gene construct, such as HSV-TK, SR39, or UL97.

SR39-transduced cells = experiment: Cell proliferation assay, low copy number, SR39; assay type: cell-based
Procedure: as §1, §2

non-transduced cells = experiment: Cell proliferation assay, non-transduced cells; assay type: cell-based
Procedure: as §1, §2

[1] = tested on: regular PSCs (not transduced with the TK construct); experiment: Calcein cell viability assay, ganciclovir on control PSC; assay type: cell-based, human; settings: concentrations of 40 μM
Procedure: (§3) Cell Proliferation Measurement by Calcein Assay:
(§4) Cells were plated onto a 96 wells pre-coated with polyornothine+ECM (1/50). Respectively 1000 cells for pluripotent stem cells, 5000 cells for early NPC and 30000 cells for late NPC. Ganciclovir (Cemevene diluted in PBS, Roche) treatment was added the day after cell plating for PSC, 3 days later for early NPC and one week later for late NPC. Calcein (2 μM) was added for different time course of ganciclovir treatment (24H to 96H). Cell survival was measured by calcein integration after 24h of incubation in a 37° C. incubator.

control neurons = experiment: Calcein cell viability assay, ganciclovir on control neurons; assay type: cell-based, human; settings: concentrations up to 40 μM
Procedure: as §3, §4

[2] = tested on: HEK cells transfected with HSV-TK plasmid; experiment: Cell proliferation/viability assay, high copy number plasmid, HSV-TK; assay type: cell-based
Procedure: (§5) In further experiments, cell proliferation assay was performed using different suicide gene constructs in combination with various drugs, such as acyclovir, ganciclovir, or pencilovir. In the first assay, a kinase from human cytomegalovirus (CMV), UL97, was used as a novel suicide gene. The HEK cells were transfected with a high copy number of the respective plasmids.

[3] = tested on: TK-PSC transplanted into the striatum; experiment: Transplantation of TK-PSC into striatum and ganciclovir treatment (teratoma formation); assay type: in vivo, NOD/SCID mice
Procedure: (§6) FIGS. 3A-3C: Schedule of cell transplantation and ganciclovir treatment. Different transplantation and ganciclovir treatment protocols were used. (A) Schematic representation of the differentiation protocol towards DA neurons. Pluripotent stem cells were cultured as neurospheres for 1 week for midbrain orientation phase, followed by a 2 or 3 week-maturation phase. (B) Transplantation of undifferentiated pluripotent stem cells with early or late ganciclovir treatment. Early treatment: undifferentiated pluripotent stem cells were transplanted and ganciclovir (or PBS control) was applied by daily intra-peritoneal injection from day 4 to day 19 post-transplantation. Late treatment: undifferentiated pluripotent stem cells were transplanted and ganciclovir (or PBS control) was applied by daily intra-peritoneal injection from day 30 to day 45 post-transplantation. (C) Transplantation of 2 or 3 week NPC: NPC containing—neurospheres were dissociated and transplanted into mice striatum. Ganciclovir (or PBS control) treatment was given from day 4 to day 19 post-transplantation. For all protocols, animals were sacrificed 1 month after termination of ganciclovir treatment.
(§7) Stereotaxic engraftment and ganciclovir treatment:
(§8) Undifferentiated pluripotent stem cells (20000 cells/μL) and dissociated neurospheres (100.000 cells/μL) were injected in the striatum of anesthetized mice using a 27-G Hamilton syringe. Injection coordinates for lateral striatum were: bregma=0.74 mm, mediolateral=2.25 mm, dorsoventral=3.5 mm; for medial striatum: bregma=0.74 mm, mediolateral=1.4 mm, dorsoventral=2.8 mm. Mice were euthanized one month later after ganciclovir termination.
(§9) Morphological and Phenotypic Analysis of Injected Surviving Cells:
(§10) Anesthetized mice were fixed by intracardiac perfusion of 4% paraformaldehyde in phosphate-buffered saline. Immunohistochemical detection was performed on 10-μm thick free-floating cryostat sections using Alexa 488-, or 555-labeled secondary antibodies or the biotin-avidin-peroxidase complex method (Vector). The following primary antibodies were used: Nestin (rabbit polyclonal anti-human, from Chemicon, 1/400), β3-tubulin (mouse monoclonal from Sigma or rabbit polyclonal from Covance, 1/2000), Neuronal Nuclei-specific protein (NeuN, mouse monoclonal from Chemicon, 1/1000), Glial Fibrillary Acidic Protein (GFAP, rabbit polyclonal from Dako, 1/2000), Proliferating Cell Nuclear Antigen (PCNA, mouse monoclonal from Dako, 1/100), Tyrosin Hydroxylase (TH, rabbit polyclonal from millipore, 1/500), iba 1 (polyclonal rabbit from Wako, 1/500), HSV-TK (mouse monoclonal, Gentaur, 1/100), ki67 (monoclonal rabbit, Abcam, 1/100 or mouse, Chemicon, 1/100).

TK-NPC transplants = experiment: Transplantation of 2-3 week NPC neurospheres into striatum and ganciclovir treatment; assay type: in vivo, mice
Procedure: as §6, with “Ganciclovir (or PBS control) treatment was given from day 4 to day 19 post-transplantation.” left out
as §7, §8, §9, §10
BrdU (100 mg/kg, Millipore) was injected intraperitoneally twice daily for 3 consecutive days. Mice were sacrificed 5 days later and perfused, through the heart, with PBS and 4% paraformaldehyde in PBS. […]

[4] = tested on: HEK cells transfected with UL97 under the UBI promoter; experiment: Cell proliferation/viability assay, high copy number plasmid, UL97; assay type: cell-based
Procedure: as §5

TK-NPCs = experiment: Calcein cell viability assay, ganciclovir time course on TK-NPC; assay type: cell-based, human; settings: 40 μM
Procedure: as §3, §4

[5] = tested on: TK-PSC (HS415 pluripotent stem cells expressing HSV-TK under the Ki67 promoter); experiment: Calcein cell viability assay, ganciclovir on TK-PSC; assay type: cell-based, human
Procedure: as §3, §4

Nc1nc2c(ncn2COCCO)c(=O)[nH]1 [acyclovir, Acyclovir]
concentration needed to kill HSV-TK-transduced cells (HSV-TK-transduced cells): very high concentrations | concentration needed to kill SR39-transduced cells (SR39-transduced cells): very high concentrations

Nc1nc2c(ncn2CCC(CO)CO)c(=O)[nH]1 [penciclovir, Penciclovir]
concentration needed to kill HSV-TK-transduced cells (HSV-TK-transduced cells): relatively low concentrations | concentration needed to kill SR39-transduced cells (SR39-transduced cells): relatively low concentrations | toxicity in untransduced cells (non-transduced cells): did not show any toxicity

Nc1nc(O)c2ncn(COC(CO)CO)c2n1 [ganciclovir, Ganciclovir]
concentration needed to kill HSV-TK-transduced cells (HSV-TK-transduced cells): relatively low concentration | effect on regular (control) PSCs [1]: resistant; also recorded: no ganciclovir toxicity is observed | effect on control neurons (control neurons): not affected | sensitivity of HSV-TK-transfected HEK cells [2]: sensitivity | teratoma formation, early ganciclovir treatment ([3]; 15 days ganciclovir starting 4 days post-transplantation, daily intra-peritoneal injection): no observed teratomas; also recorded: absence of teratoma formation and cell proliferation | development of large tumors (graft surface), early ganciclovir treatment ([3]; PSC transplanted, early treatment): completely prevented | tumor size (graft surface), late ganciclovir treatment ([3]; PSC transplanted, late treatment): did not have any effect | human cells (HCM) remaining in graft, early ganciclovir treatment ([3]; day 4 to 19 post-transplantation, analysed one month after end of treatment): hardly any human cells left; also recorded: barely detectable | teratoma formation, late ganciclovir treatment ([3]; ganciclovir days 30-45 post-transplantation, sacrifice 30 days after end of treatment): teratoma formation in both; also recorded: no difference | size of NPC transplants (graft surface) (TK-NPC transplants; NPC derived from 2-3 weeks old neurospheres): not affected | PCNA / Ki67 staining pattern of transplants (TK-NPC transplants; NPC transplants): did not alter this pattern | neural markers of transplanted cells (beta 3 tubulin, TH, nestin) (TK-NPC transplants; immunofluorescence 7 weeks after transplantation): None of these markers were affected | graft development, PBS versus ganciclovir (TK-NPC transplants; treated on days 7-22 following transplantation, sacrifice 4 weeks after end of treatment): No difference was observed | sensitivity of UL97-transfected HEK cells [4]: showed sensitivity | time to complete killing of TK-NPCs (TK-NPCs; TK-NPCs after 1 week of neurosphere differentiation): 8 days | killing of TK-NPCs (TK-NPCs; TK-NPCs after 2 weeks of neurosphere differentiation): not killed | concentration needed to kill SR39-transduced cells (SR39-transduced cells): relatively low concentration | time in which TK PSCs were killed ([5]; 40 μM): ≤ 4 days | sensitivity of TK PSCs to ganciclovir exposure ([5]; 96h exposure): highly sensitive | ganciclovir concentration at which loss of cells was almost complete ([5]; TK PSCs, 96h exposure): 10 µM | ganciclovir concentration at which loss of cells was observed ([5]; TK PSCs, 96h exposure): 2.5 µM | toxicity to non-transduced cells (non-transduced cells; at high concentrations): toxic
